Assay results taken from PMC12716216, “Characterization of Ligand Binding in Human Serum Albumin from Atomistic Energy Transfer Simulations” (Small Methods, 2025).
Values joined by “and” are separate entries in the source; they are usually repeats but may differ in a detail not shown here. Identical values can stand only once. Like-named read-outs stand apart in the source and are kept apart here.

What was measured:
[1] = molecular target: human serum albumin (HSA) (Homo sapiens, UniProt P02768); assay: Fluorescence ligand titration of HSA: quenching of intrinsic protein (Trp214) fluorescence, fitted Kd, n and FRET efficiency
Experimental: For absorbance and fluorescence, solutions of the ligand, protein, and protein‐ligand complexes at different concentrations were prepared using PBS 1x buffer. […] The fluorescence intensities of protein‐ligand complexes were corrected for inner‐filter effects based on the absorbance of the ligands at the excitation and emission wavelengths ( IDA,cor=IDA10^(Absex+Absem)/2 ).^[ [19] ^] The fluorescence of the ligands in the absence of HSA was also recorded at 100 µM concentration. Spectral overlaps used to compute FRET rates were computed from the measured area‐normalized D emission and A absorption spectra and are reported in the Supporting Information. Protein and ligand solutions were freshly prepared, and titrations were carried out in the cuvette right before the measurement. The average of three measurements for the complexes at each ligand concentration was used to plot the spectra and compute FRET efficiencies following this formula: (10) E=1−IDA/ID where IDA is the intensity of the complex and ID the intensity of HSA in the absence of ligand.
Efficiencies were corrected based on the percentage of protein‐ligand complex formed in each solution, based on the measured Kd values, then final efficiencies were averaged over the three concentrations.

HSA = settings: cited from earlier work
[2] = 5 µM HSA, PBS 1x, 295 nm excitation, IFE-corrected (carprofen: 280 nm)
[3] = Kd, excitation 280 nm, IFE-corrected
[4] = Kd, excitation 280 nm, no correction
[5] = Kd, excitation 295 nm, no correction
[6] = corrected by fraction of ligand-bound protein, 295 nm excitation, IFE-corrected (carprofen: 280 nm)
[7] = dissociation binding constant Kd, 5 µM HSA, PBS 1x, 25 °C, 295 nm excitation, IFE-corrected (carprofen: 280 nm)
[8] = excitation 280 nm, IFE-corrected
[9] = excitation 280 nm, no correction
[10] = excitation 295 nm, IFE-corrected
[11] = excitation 295 nm, no correction

human serum albumin (HSA), sequence (P02768 25-609): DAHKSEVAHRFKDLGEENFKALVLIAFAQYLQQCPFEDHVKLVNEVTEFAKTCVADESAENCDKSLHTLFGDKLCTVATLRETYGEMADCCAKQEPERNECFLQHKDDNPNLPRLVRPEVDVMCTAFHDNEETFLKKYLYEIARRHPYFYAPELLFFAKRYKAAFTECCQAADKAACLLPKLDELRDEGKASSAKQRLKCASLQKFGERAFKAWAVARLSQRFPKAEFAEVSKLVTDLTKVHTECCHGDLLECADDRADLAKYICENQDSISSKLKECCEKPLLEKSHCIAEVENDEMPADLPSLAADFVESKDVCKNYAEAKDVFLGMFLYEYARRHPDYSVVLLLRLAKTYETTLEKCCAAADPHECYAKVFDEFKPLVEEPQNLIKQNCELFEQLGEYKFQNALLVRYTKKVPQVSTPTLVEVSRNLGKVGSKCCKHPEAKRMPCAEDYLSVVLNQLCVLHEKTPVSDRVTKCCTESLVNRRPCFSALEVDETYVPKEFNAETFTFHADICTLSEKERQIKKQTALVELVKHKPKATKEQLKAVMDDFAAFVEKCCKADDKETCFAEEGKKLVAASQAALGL

Row | SMILES | solute binding parameter n (Hill coefficient) [1, 2] | Kd [1, 3] [µM] | Kd [1, 4] [µM] | Kd [1, 5] [µM] | experimental FRET efficiency E (Eexp) [1, 6] | Kd [1, 7] [µM] | Eexp [1, 8] | Eexp [1, 9] | Eexp [1, 10] | Eexp [1, 11] | measured FRET efficiency ([1]; from fluorescence data) [%] | further results
1 | O=C(O)c1c2ccccc2nc2ccccc12 [ACA, 9‐acridinecarboxylic acid] | 0.67 | 17.5 | 20.9 | 18.3 | 0.63 | 15.5 | 0.64± 0.02 | 0.75± 0.02 | 0.63 ± 0.02 | 0.72± 0.02 | 63 | –
2 | NCCNc1cccc2ccccc12 [NNE, N‐(1‐naphthyl)ethylenediamine] | 0.33 | 3.9 | 5.6 | 5 | 0.55 | 3.5 | 0.45± 0.01 | 0.57± 0.03 | 0.55 ± 0.02 | 0.67± 0.03 | 55 | experimental FRET efficiency E (Eexp) ([1]; corrected by fraction of ligand-bound protein, 295 nm excitation, IFE-corrected (carprofen: 280 nm), listed as N-(1-Naphthyl)ethylenediamine): 0.55 ± 0.02
3 | COc1ccc2c(c1)c(CC(=O)O)c(C)n2C(=O)c1ccc(Cl)cc1 [indomethacin] | – | – | – | – | – | – | – | – | – | – | – | Kd (HSA; read-out: Kd previously reported value): 6.1 µM
4 | Oc1ccc2ccccc2c1 [2‐naphthol] | 0.71 | 64.5 | 77 | 6.9 | 0.80 | 6.6 | 0.71± 0.02 | 0.87± 0.03 | 0.80 ± 0.03 | 0.82± 0.03 | 80 | experimental FRET efficiency E (Eexp) ([1]; corrected by fraction of ligand-bound protein, 295 nm excitation, IFE-corrected (carprofen: 280 nm), listed as 2-Naphthol): 0.80 ± 0.03
5 | Oc1cccc2ccccc12 [1‐naphthol] | – | 128 | 104 | 105 | – | 137 | – | – | – | – | – | Eexp [1]: 0.83± 0.01 and 0.46± 0.05 and 0.79± 0.03 and 0.54± 0.03; experimental FRET efficiency E (Eexp) [1]: 0.46± 0.05 and 0.46; measured FRET efficiency [1]: 46%; solute binding parameter n (Hill coefficient) [1]: 0.73
6 | O=C(O)c1c2ccccc2nc2ccccc12 [protonated ACA, 9-Acridinecarboxylic acid (protonated)] | – | – | – | – | 0.63 ± 0.02 | – | – | – | – | – | – | –
7 | C[C@H](C(=O)O)c1ccc2c(c1)[nH]c1ccc(Cl)cc12 [(S)‐carprofen] | 0.48 | – | 3 | 2.8 | 0.81 | 1.8 | 0.81 ± 0.03 | 0.89± 0.02 | 0.42± 0.04 | 0.71± 0.03 | 81 | experimental FRET efficiency E (Eexp) ([1]; corrected by fraction of ligand-bound protein, 295 nm excitation, IFE-corrected (carprofen: 280 nm), listed as Carprofen): 0.81 ± 0.03; Kd (HSA; read-out: Kd previous reports): 0.2 to 0.9 µM
8 | O=C(O)COc1cccc2cccnc12 [QAA, (quinoline‐8‐yloxy)‐acetic acid] | 0.76 | 74.5 | 75.9 | 54.8 | 0.60 | 48 | 0.68± 0.01 | 0.80± 0.01 | 0.60 ± 0.01 | 0.76± 0.01 | 60 | Kd ([1]; Kd, excitation 295 nm, IFE-corrected): 48.1 µM; experimental FRET efficiency E (Eexp) ([1]; corrected by fraction of ligand-bound protein, 295 nm excitation, IFE-corrected (carprofen: 280 nm), listed as (Quinolin-8-yloxy)-acetic acid): 0.60 ± 0.01
